What all share (format): functional
The test system of one test is Micrococcus luteus. The test is described as follows: Antibacterial activity against Micrococcus luteus QDIO-3 assessed as inhibition of bacterial growth by serial dilution method.
The subject of another test is Pseudomonas aeruginosa. The experiment in a line: Antibacterial activity against Pseudomonas aeruginosa QDIO-4 assessed as inhibition of bacterial growth by serial dilution method.
The subject of the next test is Vibrio alginolyticus. The experiment in a line: Antibacterial activity against Vibrio alginolyticus QDIO-5 assessed as inhibition of bacterial growth by serial dilution method.
A further test relates to Vibrio anguillarum. The test is described as follows: Antibacterial activity against Vibrio anguillarum QDIO-6 assessed as inhibition of bacterial growth by serial dilution method.
The next test relates to Aeromonas hydrophila. The experiment in a line: Antibacterial activity against Aeromonas hydrophila QDIO-1 assessed as inhibition of bacterial growth by serial dilution method.
The next test has as its system Vibrio parahaemolyticus. The test is described as follows: Antibacterial activity against Vibrio parahaemolyticus QDIO-8 assessed as inhibition of bacterial growth by serial dilution method.
In another test the test system is Escherichia coli. The test is described as follows: Antibacterial activity against Escherichia coli EMBLC-1 assessed as inhibition of bacterial growth by serial dilution method.
For a further test, the system named is Edwardsiella tarda. The experiment in a line: Antibacterial activity against Edwardsiella tarda QDIO-2 assessed as inhibition of bacterial growth by serial dilution method.

Converted amounts (≈) assume the structure as drawn. Where only a bound is given, the exact number is not on record here.

Consider `Cc1ccc2c(c1/C=C/C=C/C(=O)O)[C@H](C)C[C@H](C)[C@@H]2O`, for which the minimal inhibitory concentration (MIC) (commonly the lowest concentration that inhibits growth of the organism) with Micrococcus luteus was 64 µg/mL (≈ 223 µM); in the test with Pseudomonas aeruginosa it was over 64 µg/mL; with Vibrio alginolyticus, 32 µg/mL (≈ 112 µM); with Vibrio anguillarum it was 4 µg/mL (≈ 14 µM); in the test on Aeromonas hydrophila, 32 µg/mL (≈ 112 µM); in the test on Vibrio parahaemolyticus it was 32 µg/mL (≈ 112 µM). The MIC is 64 µg/mL (≈ 223 µM) with Escherichia coli and over 64 µg/mL in the test with Edwardsiella tarda.

On to `Cc1ccc2cc(CO)cc(C)c2c1/C=C/C=C/C(=O)O`, for which the MIC was 2 µg/mL (≈ 7.08 µM) with Micrococcus luteus; over 64 µg/mL in the test with Pseudomonas aeruginosa; 16 µg/mL (≈ 56.7 µM) with Vibrio alginolyticus; over 64 µg/mL with Vibrio anguillarum; over 64 µg/mL in the test with Aeromonas hydrophila; 32 µg/mL (≈ 113 µM) in the test on Vibrio parahaemolyticus. The MIC in the test with Escherichia coli and with Edwardsiella tarda was 64 µg/mL (≈ 227 µM) throughout.

Take `Cc1ccc2c(c1/C=C/C=C/C(=O)O)[C@H](C)C[C@H](CO)C2`: the MIC is over 64 µg/mL in the test on Micrococcus luteus; over 64 µg/mL with Pseudomonas aeruginosa; over 64 µg/mL with Vibrio alginolyticus; 4 µg/mL (≈ 14 µM) in the test with Vibrio anguillarum; over 64 µg/mL with Aeromonas hydrophila; 64 µg/mL (≈ 223 µM) in the test on Vibrio parahaemolyticus. For the same molecule, the MIC in the test with Escherichia coli and with Edwardsiella tarda was over 64 µg/mL throughout.

For `CC1C=C[C@H]2C[C@@H](CO)C[C@@H](C)[C@@H]2[C@H]1/C=C/C=C/C(=O)O` (stereo not given in full), the MIC is 8 µg/mL (≈ 27.5 µM) with Micrococcus luteus; over 64 µg/mL in the test on Pseudomonas aeruginosa; 8 µg/mL (≈ 27.5 µM) in the test with Vibrio alginolyticus; over 64 µg/mL with Vibrio anguillarum; 64 µg/mL (≈ 220 µM) with Aeromonas hydrophila; over 64 µg/mL with Vibrio parahaemolyticus. Moreover, the MIC with Escherichia coli is 64 µg/mL (≈ 220 µM); in the test on Edwardsiella tarda, over 64 µg/mL.

Turning to `C[C@@H]1C[C@@H]2C=C[C@H](C)[C@H](/C=C/C=C/C(=O)O)[C@H]2[C@@](C)(O)C1`, the MIC in the test with Micrococcus luteus is over 64 µg/mL; in the test with Pseudomonas aeruginosa it was over 64 µg/mL; in the test on Vibrio alginolyticus it was 32 µg/mL (≈ 110 µM); in the test with Vibrio anguillarum, over 64 µg/mL; with Aeromonas hydrophila it was over 64 µg/mL; in the test with Vibrio parahaemolyticus, 64 µg/mL (≈ 220 µM). The minimum inhibitory concentration (MIC) is 64 µg/mL (≈ 220 µM) in the test on Escherichia coli and over 64 µg/mL with Edwardsiella tarda.

For the molecule `C[C@H]1C=C[C@H]2C[C@@H](CO)C[C@](C)(O)[C@@H]2[C@H]1/C=C/C=C/C(=O)O`, the MIC with Micrococcus luteus was over 64 µg/mL; in the test on Pseudomonas aeruginosa, 4 µg/mL (≈ 13.1 µM); in the test with Vibrio alginolyticus, over 64 µg/mL; with Vibrio anguillarum, over 64 µg/mL; with Aeromonas hydrophila it was over 64 µg/mL; with Vibrio parahaemolyticus, over 64 µg/mL. In addition, the MIC in the test with Escherichia coli and in the test on Edwardsiella tarda was over 64 µg/mL throughout.

For the molecule `Cc1ccc2c(c1/C=C/C=C/C(=O)O)[C@H](C)C[C@@](C)(O)C2=O`, the MIC was over 64 µg/mL with Micrococcus luteus; over 64 µg/mL with Pseudomonas aeruginosa; over 64 µg/mL in the test on Vibrio alginolyticus; 4 µg/mL (≈ 13.3 µM) with Vibrio anguillarum; over 64 µg/mL with Aeromonas hydrophila; 64 µg/mL (≈ 213 µM) in the test on Vibrio parahaemolyticus. Besides, the minimum inhibitory concentration (MIC) with Escherichia coli is 64 µg/mL (≈ 213 µM); in the test with Edwardsiella tarda it was over 64 µg/mL.

Consider `C[C@@H]1C[C@H](CO)C[C@@H]2C=C[C@@](C)(O)[C@](O)(/C=C/C=C/C(=O)O)[C@@H]12`, for which the minimal inhibitory concentration (MIC) in the test with Micrococcus luteus was over 64 µg/mL; with Pseudomonas aeruginosa it was over 64 µg/mL; in the test with Vibrio alginolyticus it was 32 µg/mL (≈ 99.3 µM); in the test on Vibrio anguillarum it was 8 µg/mL (≈ 24.8 µM); in the test on Aeromonas hydrophila it was over 64 µg/mL; with Vibrio parahaemolyticus, 64 µg/mL (≈ 199 µM). The minimum inhibitory concentration (MIC) in the test on Escherichia coli and with Edwardsiella tarda was over 64 µg/mL throughout.

For `CO[C@@]1(C)C=C[C@H]2C[C@@H](CO)C[C@@H](C)[C@@H]2[C@H]1/C=C/C=C/C(=O)O`, the MIC was over 64 µg/mL in the test on Micrococcus luteus; over 64 µg/mL in the test with Pseudomonas aeruginosa; 32 µg/mL (≈ 99.9 µM) with Vibrio alginolyticus; over 64 µg/mL in the test on Vibrio anguillarum; over 64 µg/mL in the test on Aeromonas hydrophila; over 64 µg/mL in the test with Vibrio parahaemolyticus. The minimal inhibitory concentration (MIC) in the test on Escherichia coli is 8 µg/mL (≈ 25 µM); with Edwardsiella tarda, over 64 µg/mL.

As to `CO[C@]1(C)C=C[C@H]2C[C@@H](CO)C[C@@H](C)[C@@H]2[C@H]1/C=C/C=C/C(=O)O`, the MIC in the test on Micrococcus luteus is over 64 µg/mL; in the test with Pseudomonas aeruginosa, over 64 µg/mL; with Vibrio alginolyticus it was over 64 µg/mL; in the test with Vibrio anguillarum it was 8 µg/mL (≈ 25 µM); in the test with Aeromonas hydrophila it was over 64 µg/mL; in the test with Vibrio parahaemolyticus, 64 µg/mL (≈ 200 µM). The MIC in the test with Escherichia coli and in the test on Edwardsiella tarda was over 64 µg/mL each time.

Regarding `Cc1cc(C)c2c(/C=C/C=C/C(=O)O)c(CO)ccc2c1`, the MIC was over 64 µg/mL in the test on Micrococcus luteus; over 64 µg/mL with Pseudomonas aeruginosa; 32 µg/mL (≈ 113 µM) in the test with Vibrio alginolyticus; over 64 µg/mL with Vibrio anguillarum; 64 µg/mL (≈ 227 µM) with Aeromonas hydrophila; 64 µg/mL (≈ 227 µM) in the test with Vibrio parahaemolyticus. Also, the MIC in the test on Escherichia coli and in the test on Edwardsiella tarda was over 64 µg/mL throughout.

As for `Cc1ccc2c(c1/C=C/C=C/C(=O)O)[C@H](C)C[C@@](C)(O)C2`, the MIC in the test on Micrococcus luteus was over 64 µg/mL; with Pseudomonas aeruginosa, 16 µg/mL (≈ 55.9 µM); in the test with Vibrio alginolyticus it was over 64 µg/mL; in the test with Vibrio anguillarum, over 64 µg/mL; in the test with Aeromonas hydrophila it was over 64 µg/mL; in the test on Vibrio parahaemolyticus, over 64 µg/mL. Besides, the MIC in the test with Escherichia coli and in the test with Edwardsiella tarda was over 64 µg/mL in each case.

On to `O=C(N[C@H](CO)[C@H](O)c1ccc([N+](=O)[O-])cc1)C(Cl)Cl` [CHLORAMPHENICOL], for which the MIC is 0.5 µg/mL (≈ 1.55 µM) in the test on Micrococcus luteus; 1 µg/mL (≈ 3.09 µM) in the test on Pseudomonas aeruginosa; 2 µg/mL (≈ 6.19 µM) in the test on Vibrio alginolyticus; 2 µg/mL (≈ 6.19 µM) in the test on Vibrio anguillarum; 1 µg/mL (≈ 3.09 µM) in the test with Aeromonas hydrophila; 1 µg/mL (≈ 3.09 µM) with Vibrio parahaemolyticus. Besides, the MIC in the test on Escherichia coli was 1 µg/mL (≈ 3.09 µM); with Edwardsiella tarda it was 2 µg/mL (≈ 6.19 µM).

As for `Cc1cc(CO)cc2ccc(CO)c(/C=C/C=C/C(=O)O)c12`, the MIC in the test with Micrococcus luteus is over 64 µg/mL; with Pseudomonas aeruginosa it was over 64 µg/mL; with Vibrio alginolyticus, 64 µg/mL (≈ 215 µM); in the test with Vibrio anguillarum it was over 64 µg/mL; in the test with Aeromonas hydrophila, over 64 µg/mL; in the test with Vibrio parahaemolyticus it was over 64 µg/mL. Further, the minimal inhibitory concentration (MIC) with Escherichia coli and in the test on Edwardsiella tarda was over 64 µg/mL throughout.

Consider `Cc1cc(CO)cc2ccc(CO)c(/C=C\C=C\C(=O)O)c12`, for which the MIC in the test on Micrococcus luteus, in the test with Pseudomonas aeruginosa, in the test with Vibrio alginolyticus, in the test on Vibrio anguillarum, in the test on Aeromonas hydrophila and in the test with Vibrio parahaemolyticus was over 64 µg/mL throughout. Also, the MIC with Escherichia coli and in the test with Edwardsiella tarda was over 64 µg/mL each time.

The values above are taken from ChEMBL document CHEMBL5120874, “Tanzawaic Acid Derivatives: Fungal Polyketides from the Deep-Sea Coral-Derived Endozoic Penicillium steckii AS-324” (2022).
